Values of other authors, collected in patent US4350696A, “Imidazole derivatives, process for their preparation and pharmaceutical compositions thereof” (Pfizer Inc., priority 1980, dated 1982).

Assays:
aggregation of platelets = details: rats in vivo, abdominal aorta loop
[1] = tested on: human blood platelet aggregation; details: in vitro, a variety of aggregating agents
[2] = tested on: platelet clumping and embolisation in the lungs; details: rabbit, intravenous injection of arachidonic acid

| SMILES | prevention of platelet aggregation in extra corporeal loop (aggregation of platelets) | inhibitory activity against platelet aggregation [1] | protection from lethal effect of intravenous arachidonic acid [2] |
| --- | --- | --- | --- |
| O=C1C(CC[S+]([O-])c2ccccc2)C(=O)N(c2ccccc2)N1c1ccccc1 (stereo not shown) [sulphinpyrazone] | prevent the aggregation of platelets | show inhibitory activity | – |
| CC(=O)Oc1ccccc1C(=O)O [aspirin] | – | show inhibitory activity | protect the rabbit from the lethal effect of the injection |
